Counter-ions that a name gives are not always drawn. Like-named read-outs stand apart in the source and are kept apart here.
Key:
carrageenin edema = carrageenin edema test in rats (antiinflammatory activity); type: in vivo; conditions: Rattus norvegicus, po, read-out: % Decrease of the edema; for inhibition in vivo at 50 mg/kg: dose 50 mg/kg p.o. in rats; for inhibition in vivo at 200 mg/kg: dose 200 mg/kg p.o. in rats; for inhibition in vivo at 100 mg/kg: dose 100 mg/kg p.o. in rats
Source text: The anti-inflamatory activity of the indole derivatives is evidenced by means of the carrageenin edema test in rats. In representative experiments compounds of formula I provoked a substantial decrease of the induced edema at dosage levels from about one fifth to about one tenth of their respective LD50 values. The following table reports the results of the experiments:
The following table reports the percent inhibitory effect of some representative compounds of the formula II in the carrageenin edema test.

[1] = LD50 p.o. in rats (acute toxicity); conditions: rat, in vivo, po
[2] = system: pain threshold of inflammed foot of the rat; experiment: analgesic effect on pain threshold of inflamed foot of the rat (Randall and Selitto); type: in vivo; conditions: vs acetylsalicylic acid
[3] = compounds of the examples (formula I)

Compound | inhibition in vivo at 50 mg/kg (carrageenin edema; hydrazines of formula II) [%] | LD50 ([1]; hydrazines of formula II) [mg/kg] | LD50 [1, 3] [mg/kg] | also measured
CN(NC(=O)C1CC1)c1ccccc1 [1-Phenyl-1-methyl-2-cyclopropanoylhydrazine] | 35 | 500 | – | –
COc1ccc(N(C)NC(=O)C(C)C)cc1 [1-(p-Methoxyphenyl)-1-methyl-2-isobutyrylhydrazine] | 30 | 500 | – | –
Cn1c(NC(=O)Nc2ccccc2)c(-c2ccc(Cl)cc2)c2ccccc21 [Example 34, 3-(p-Chlorophenyl)-1-methyl-2-phenylureidoindole] | – | – | > 1000 | inhibition in vivo at 200 mg/kg (carrageenin edema; [3]): 33%
CN(NC(=O)CCCN1C(=O)c2ccccc2C1=O)c1ccccc1 [1-Phenyl-1-methyl-1-( -phthalimido-butyryl)-hydrazine] | – | > 1000 | – | inhibition in vivo at 200 mg/kg (carrageenin edema; hydrazines of formula II): 28%
CN(NC(=O)C1CCCC1)c1ccccc1 [1-Phenyl-1-methyl-2-cyclopentanoylhydrazine] | 37 | 500 | – | –
CC(C)C(=O)NN(C)c1ccccc1 [1-Phenyl-1-methyl-2-isobutyrylhydrazine] | 36 | 500 | – | –
CN1C(=NC(=O)c2ccccc2)C(C)(C)c2ccccc21 [Example 28, 2-Benzoylimino-1,3,3-trimethylindoline] | – | – | > 1000 | inhibition in vivo at 100 mg/kg (carrageenin edema; [3]): 35%; inhibition in vivo at 200 mg/kg (carrageenin edema; [3]): 45%
CCC(=O)NN(C)c1ccccc1 [1-Phenyl-1-methyl-2-propionylhydrazine] | 30 | 500 | – | –
COc1cccc(-c2c(N)n(C)c3ccccc23)c1 [Example 9, 2-amino-3-(m-anisyl)-1-methylindole hydrochloride] | – | – | > 1000 | inhibition in vivo at 100 mg/kg (carrageenin edema; [3]): 30%; inhibition in vivo at 200 mg/kg (carrageenin edema; [3]): 41%
CN(NC(=O)C1CCCCC1)c1ccccc1 [1-Phenyl-1-methyl-2-cyclohexanoyl hydrazine] | 37 | 500 | – | –
CN1C(=N)C2(CCCCC2)c2ccccc21 [Example 13, 2'-imino-1'-methyl-spyro(cyclohexane-1,3'-indoline)hydrochloride] | – | – | 100 | inhibition in vivo at 8 mg/kg (carrageenin edema; compounds of the examples (formula I), dose 8 mg/kg p.o. in rats): 45%; inhibition in vivo at 20 mg/kg (carrageenin edema; compounds of the examples (formula I), dose 20 mg/kg p.o. in rats): 60%; analgesic activity relative to acetylsalicylic acid (times as active) [2]: about 25 times
CC(=O)NN(C)c1ccccc1 [1-Phenyl-1-methyl-2-acetylhydrazine] | 57 | 500 | – | –
CCC(C)C(=O)NN(C)c1ccccc1 (stereo not drawn) [1-Phenyl-1-methyl-2-(2-methylbutyryl)-hydrazine] | – | > 1000 | – | inhibition in vivo at 100 mg/kg (carrageenin edema; hydrazines of formula II): 40%

Source: patent publication US3984563A, “Antiinflammatory 2-imino-indolines and their pharmaceutical compositions” (Gruppo Lepetit S.p.A., priority 1973, dated 1976)
